Among the data in ChEMBL document CHEMBL3991601, “The target landscape of clinical kinase drugs” (Science, 2017) are Kd values, retold here.

Experiment [1] concerns the target T1, Aurora kinase A (Homo sapiens, UniProt O14965).
T1 sequence (O14965 whole entry): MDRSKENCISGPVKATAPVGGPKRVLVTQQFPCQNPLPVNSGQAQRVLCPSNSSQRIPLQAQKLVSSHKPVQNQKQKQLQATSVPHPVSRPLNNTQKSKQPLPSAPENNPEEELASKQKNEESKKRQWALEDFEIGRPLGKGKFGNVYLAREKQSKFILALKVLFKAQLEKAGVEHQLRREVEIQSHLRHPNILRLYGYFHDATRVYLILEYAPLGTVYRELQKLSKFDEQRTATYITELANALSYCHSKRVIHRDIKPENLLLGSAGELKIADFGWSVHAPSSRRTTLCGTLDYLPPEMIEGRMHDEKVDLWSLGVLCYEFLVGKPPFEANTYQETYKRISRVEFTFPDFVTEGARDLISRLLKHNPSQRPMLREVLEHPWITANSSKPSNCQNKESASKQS

Experiment [2] addresses Calcium/calmodulin-dependent protein kinase kinase 2 (Homo sapiens, UniProt Q96RR4).
Experiment [3] concerns the target T2, Serine/threonine-protein kinase ICK (Homo sapiens, UniProt Q9UPZ9).
T2 sequence (Q9UPZ9 whole entry): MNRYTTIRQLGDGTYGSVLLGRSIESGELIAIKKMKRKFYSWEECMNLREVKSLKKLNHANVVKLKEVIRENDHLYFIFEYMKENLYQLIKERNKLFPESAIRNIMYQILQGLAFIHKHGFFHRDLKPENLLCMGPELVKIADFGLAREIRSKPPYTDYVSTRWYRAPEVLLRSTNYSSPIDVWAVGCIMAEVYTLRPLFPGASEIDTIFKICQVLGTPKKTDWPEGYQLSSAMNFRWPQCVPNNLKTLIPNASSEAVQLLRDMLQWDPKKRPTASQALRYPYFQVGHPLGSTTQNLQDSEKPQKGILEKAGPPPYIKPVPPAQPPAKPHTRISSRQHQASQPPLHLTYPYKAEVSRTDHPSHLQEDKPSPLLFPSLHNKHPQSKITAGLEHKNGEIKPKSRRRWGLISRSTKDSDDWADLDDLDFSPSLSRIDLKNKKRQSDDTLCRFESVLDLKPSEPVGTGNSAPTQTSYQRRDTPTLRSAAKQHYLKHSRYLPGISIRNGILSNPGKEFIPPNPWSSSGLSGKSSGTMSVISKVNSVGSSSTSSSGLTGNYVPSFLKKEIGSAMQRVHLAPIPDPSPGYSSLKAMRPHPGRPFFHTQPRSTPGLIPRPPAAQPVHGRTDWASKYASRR

Experiment [4] concerns the target T3, Serine/threonine-protein kinase Chk1 (Homo sapiens, UniProt O14757).
T3 sequence (O14757 whole entry): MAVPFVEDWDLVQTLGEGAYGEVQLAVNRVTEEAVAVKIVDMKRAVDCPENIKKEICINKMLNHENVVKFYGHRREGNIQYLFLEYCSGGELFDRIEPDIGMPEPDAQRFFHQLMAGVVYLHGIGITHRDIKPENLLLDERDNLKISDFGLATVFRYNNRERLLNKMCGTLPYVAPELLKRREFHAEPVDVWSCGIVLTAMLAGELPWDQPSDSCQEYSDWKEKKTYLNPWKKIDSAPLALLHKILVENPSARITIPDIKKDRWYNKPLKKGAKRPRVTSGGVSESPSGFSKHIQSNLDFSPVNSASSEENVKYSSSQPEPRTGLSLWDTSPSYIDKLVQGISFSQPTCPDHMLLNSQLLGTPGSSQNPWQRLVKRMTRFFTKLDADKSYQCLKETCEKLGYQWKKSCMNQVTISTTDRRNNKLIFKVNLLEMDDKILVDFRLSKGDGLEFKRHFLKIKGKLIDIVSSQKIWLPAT

The target in experiment [5] is Casein kinase I isoform epsilon (Homo sapiens, UniProt P49674).
The target of experiment [6] is T4, Ephrin type-B receptor 2 (Homo sapiens, UniProt P29323).
T4 sequence (P29323 whole entry): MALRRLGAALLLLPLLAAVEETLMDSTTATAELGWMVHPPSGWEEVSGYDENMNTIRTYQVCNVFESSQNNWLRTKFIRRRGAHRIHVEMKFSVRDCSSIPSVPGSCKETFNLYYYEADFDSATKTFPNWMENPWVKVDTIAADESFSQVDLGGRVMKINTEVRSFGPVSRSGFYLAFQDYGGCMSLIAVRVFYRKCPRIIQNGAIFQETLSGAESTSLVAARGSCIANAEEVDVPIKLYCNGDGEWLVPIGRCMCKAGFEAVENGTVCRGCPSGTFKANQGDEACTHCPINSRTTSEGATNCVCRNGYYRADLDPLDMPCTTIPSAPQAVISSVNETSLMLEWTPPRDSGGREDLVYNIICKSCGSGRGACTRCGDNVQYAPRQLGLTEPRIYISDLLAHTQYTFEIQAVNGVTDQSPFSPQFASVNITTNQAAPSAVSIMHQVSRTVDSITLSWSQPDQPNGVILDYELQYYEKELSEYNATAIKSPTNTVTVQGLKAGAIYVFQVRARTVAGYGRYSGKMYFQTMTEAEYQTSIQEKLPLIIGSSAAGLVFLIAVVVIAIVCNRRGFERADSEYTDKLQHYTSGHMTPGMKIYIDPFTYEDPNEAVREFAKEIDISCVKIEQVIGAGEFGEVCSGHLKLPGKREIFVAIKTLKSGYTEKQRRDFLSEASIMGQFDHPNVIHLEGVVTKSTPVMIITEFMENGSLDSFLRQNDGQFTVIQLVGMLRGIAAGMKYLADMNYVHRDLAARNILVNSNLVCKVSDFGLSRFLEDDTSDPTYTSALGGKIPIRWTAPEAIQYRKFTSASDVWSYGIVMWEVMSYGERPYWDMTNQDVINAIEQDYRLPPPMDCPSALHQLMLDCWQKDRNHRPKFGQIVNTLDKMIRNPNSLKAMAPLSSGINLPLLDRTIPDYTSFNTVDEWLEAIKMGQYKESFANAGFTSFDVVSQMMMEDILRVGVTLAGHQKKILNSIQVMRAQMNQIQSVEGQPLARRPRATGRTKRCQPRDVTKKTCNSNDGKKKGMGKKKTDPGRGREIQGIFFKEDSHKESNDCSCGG

The target in experiment [7] is Macrophage-stimulating protein receptor (Homo sapiens, UniProt Q04912).
Experiment [8] has as its target Cyclin-dependent kinase 1 (Homo sapiens, UniProt P06493).
Experiment [9] deals with Structural maintenance of chromosomes protein 2 (Homo sapiens, UniProt O95347).
Experiment [10] has as its target Serine/threonine-protein kinase PAK 2 (Homo sapiens, UniProt Q13177).

Molecules are shown by their SMILES. The source made the active and inactive calls. Rule as the data show it, for most assays here: actives have a measured Kd and inactives only a lower limit.
Also: in the data inactive means no Kd found up to 30 µM.

Sequence of Structural maintenance of chromosomes protein 2 (O95347 whole entry): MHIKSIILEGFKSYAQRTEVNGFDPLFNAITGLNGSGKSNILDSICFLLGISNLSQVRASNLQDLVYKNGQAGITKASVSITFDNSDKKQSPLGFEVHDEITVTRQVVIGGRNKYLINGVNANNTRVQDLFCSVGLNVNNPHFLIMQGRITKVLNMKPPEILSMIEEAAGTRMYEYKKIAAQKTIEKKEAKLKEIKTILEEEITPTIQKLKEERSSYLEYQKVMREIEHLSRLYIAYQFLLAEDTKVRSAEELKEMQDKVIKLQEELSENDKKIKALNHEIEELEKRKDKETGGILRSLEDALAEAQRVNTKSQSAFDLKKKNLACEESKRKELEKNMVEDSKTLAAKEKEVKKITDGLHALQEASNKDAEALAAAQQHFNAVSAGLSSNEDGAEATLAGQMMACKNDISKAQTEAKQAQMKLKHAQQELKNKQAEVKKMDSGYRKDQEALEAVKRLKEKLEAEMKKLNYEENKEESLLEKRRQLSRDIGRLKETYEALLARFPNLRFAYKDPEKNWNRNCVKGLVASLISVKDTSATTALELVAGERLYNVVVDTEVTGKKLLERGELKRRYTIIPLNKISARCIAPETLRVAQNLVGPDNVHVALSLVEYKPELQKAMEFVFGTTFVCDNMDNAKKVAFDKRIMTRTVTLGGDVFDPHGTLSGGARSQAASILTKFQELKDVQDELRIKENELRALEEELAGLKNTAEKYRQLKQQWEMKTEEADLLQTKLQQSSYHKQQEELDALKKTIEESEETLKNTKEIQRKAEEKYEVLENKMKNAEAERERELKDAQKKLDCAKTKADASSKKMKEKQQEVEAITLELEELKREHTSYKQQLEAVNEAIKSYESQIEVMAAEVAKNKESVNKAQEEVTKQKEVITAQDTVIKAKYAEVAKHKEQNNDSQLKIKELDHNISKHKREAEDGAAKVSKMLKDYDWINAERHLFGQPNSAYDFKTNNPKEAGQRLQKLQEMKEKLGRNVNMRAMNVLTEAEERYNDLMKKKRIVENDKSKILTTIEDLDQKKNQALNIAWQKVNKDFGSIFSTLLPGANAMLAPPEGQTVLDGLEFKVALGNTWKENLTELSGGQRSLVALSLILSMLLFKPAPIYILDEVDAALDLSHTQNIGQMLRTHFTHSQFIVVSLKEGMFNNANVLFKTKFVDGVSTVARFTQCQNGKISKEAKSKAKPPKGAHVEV
Sequence of Cyclin-dependent kinase 1 (P06493 whole entry): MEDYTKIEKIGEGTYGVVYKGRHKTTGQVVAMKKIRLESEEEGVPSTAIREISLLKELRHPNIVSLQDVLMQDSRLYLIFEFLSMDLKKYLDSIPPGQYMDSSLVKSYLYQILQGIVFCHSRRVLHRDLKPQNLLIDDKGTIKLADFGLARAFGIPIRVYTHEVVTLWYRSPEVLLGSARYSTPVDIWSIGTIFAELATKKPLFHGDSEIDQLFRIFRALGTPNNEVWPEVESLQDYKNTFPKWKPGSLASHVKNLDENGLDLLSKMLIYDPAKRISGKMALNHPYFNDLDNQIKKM
Sequence of Casein kinase I isoform epsilon (P49674 whole entry, canonical isoform): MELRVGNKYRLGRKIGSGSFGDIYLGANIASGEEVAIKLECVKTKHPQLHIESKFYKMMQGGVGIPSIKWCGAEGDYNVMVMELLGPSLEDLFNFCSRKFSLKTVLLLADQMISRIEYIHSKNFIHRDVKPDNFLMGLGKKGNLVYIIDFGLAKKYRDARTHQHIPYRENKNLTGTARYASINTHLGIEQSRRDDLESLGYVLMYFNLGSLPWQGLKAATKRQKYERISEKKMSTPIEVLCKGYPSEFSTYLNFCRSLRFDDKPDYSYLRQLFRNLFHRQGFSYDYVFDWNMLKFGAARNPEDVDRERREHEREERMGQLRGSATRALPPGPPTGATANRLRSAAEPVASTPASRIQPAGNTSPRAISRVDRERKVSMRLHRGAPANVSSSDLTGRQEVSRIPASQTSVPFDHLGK
Sequence of Serine/threonine-protein kinase PAK 2 (Q13177 whole entry): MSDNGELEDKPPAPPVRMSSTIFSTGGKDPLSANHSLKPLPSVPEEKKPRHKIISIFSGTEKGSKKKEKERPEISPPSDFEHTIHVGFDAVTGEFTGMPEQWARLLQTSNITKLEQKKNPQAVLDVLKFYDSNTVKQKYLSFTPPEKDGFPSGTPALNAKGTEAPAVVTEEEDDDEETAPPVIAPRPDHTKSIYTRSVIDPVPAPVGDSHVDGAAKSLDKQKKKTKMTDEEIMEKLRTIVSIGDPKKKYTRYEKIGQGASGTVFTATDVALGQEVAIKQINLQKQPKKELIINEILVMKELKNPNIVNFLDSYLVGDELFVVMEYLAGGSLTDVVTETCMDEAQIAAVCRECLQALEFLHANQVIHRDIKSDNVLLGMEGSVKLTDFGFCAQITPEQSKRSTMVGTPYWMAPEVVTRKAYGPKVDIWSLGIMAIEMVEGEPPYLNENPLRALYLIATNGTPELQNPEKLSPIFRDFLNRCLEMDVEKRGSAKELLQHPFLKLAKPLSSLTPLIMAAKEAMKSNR
Sequence of Macrophage-stimulating protein receptor (Q04912 25-304 limits assumed): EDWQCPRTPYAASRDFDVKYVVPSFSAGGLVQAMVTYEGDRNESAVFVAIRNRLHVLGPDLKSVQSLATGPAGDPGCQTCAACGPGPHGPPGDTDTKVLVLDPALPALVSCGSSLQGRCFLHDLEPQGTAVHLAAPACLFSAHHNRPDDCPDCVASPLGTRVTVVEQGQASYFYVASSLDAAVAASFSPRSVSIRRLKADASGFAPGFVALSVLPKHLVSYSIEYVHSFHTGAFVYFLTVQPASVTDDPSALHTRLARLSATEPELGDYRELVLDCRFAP
Sequence of Macrophage-stimulating protein receptor (Q04912 310-1400 limits assumed): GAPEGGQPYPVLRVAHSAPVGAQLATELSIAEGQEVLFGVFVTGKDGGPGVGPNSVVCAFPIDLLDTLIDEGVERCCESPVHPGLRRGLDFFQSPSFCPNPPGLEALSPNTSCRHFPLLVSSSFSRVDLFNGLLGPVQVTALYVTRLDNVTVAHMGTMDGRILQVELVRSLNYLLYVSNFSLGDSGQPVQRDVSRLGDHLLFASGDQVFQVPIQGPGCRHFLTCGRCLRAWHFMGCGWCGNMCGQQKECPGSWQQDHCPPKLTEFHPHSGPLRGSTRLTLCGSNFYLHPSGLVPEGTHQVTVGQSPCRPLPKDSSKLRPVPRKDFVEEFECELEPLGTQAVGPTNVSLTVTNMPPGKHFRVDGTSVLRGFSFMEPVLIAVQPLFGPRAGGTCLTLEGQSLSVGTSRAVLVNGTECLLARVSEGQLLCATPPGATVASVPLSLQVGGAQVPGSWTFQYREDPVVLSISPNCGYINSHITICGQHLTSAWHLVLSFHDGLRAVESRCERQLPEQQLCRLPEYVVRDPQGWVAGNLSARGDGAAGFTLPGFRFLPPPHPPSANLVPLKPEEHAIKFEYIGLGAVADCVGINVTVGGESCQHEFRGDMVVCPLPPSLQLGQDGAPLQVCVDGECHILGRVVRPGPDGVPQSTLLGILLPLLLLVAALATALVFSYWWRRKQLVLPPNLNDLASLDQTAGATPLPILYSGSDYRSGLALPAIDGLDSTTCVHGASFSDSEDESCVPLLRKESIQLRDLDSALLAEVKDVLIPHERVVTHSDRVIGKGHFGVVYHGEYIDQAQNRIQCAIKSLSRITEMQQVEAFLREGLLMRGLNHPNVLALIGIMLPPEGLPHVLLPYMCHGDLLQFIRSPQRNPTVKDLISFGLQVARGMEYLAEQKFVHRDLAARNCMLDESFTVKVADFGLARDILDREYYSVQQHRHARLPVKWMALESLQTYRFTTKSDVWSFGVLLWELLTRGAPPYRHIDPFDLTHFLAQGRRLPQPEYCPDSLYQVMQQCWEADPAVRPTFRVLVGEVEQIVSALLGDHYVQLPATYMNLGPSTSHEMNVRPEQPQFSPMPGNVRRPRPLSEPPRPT
Sequence of Calcium/calmodulin-dependent protein kinase kinase 2 (Q96RR4 whole entry): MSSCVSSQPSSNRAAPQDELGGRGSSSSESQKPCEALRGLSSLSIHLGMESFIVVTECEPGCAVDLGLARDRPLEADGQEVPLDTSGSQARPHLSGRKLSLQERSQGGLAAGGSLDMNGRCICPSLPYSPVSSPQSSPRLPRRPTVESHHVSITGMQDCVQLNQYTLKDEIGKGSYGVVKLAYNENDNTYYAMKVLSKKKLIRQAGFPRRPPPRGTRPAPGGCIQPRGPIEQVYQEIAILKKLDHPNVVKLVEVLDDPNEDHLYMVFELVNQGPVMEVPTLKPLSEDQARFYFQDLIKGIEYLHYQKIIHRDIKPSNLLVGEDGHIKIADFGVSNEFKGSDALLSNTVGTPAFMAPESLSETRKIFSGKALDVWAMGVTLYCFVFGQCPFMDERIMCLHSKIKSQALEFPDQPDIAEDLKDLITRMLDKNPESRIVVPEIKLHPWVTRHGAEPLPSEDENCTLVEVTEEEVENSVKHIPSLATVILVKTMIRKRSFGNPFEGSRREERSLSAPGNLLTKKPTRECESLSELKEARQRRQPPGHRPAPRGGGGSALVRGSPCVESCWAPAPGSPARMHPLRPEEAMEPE

As to `Cn1cc(-c2ccc3nnc(C(F)(F)c4ccc5ncccc5c4)n3n2)cn1` [JNJ-38877605], the Kd in [1], in [2], in experiment [3], in [4], in [5] and in experiment [6] was > 30 µM (inactive) each time. In addition, the Kd in experiment [7], in [8], in experiment [9] and in [10] was > 30 µM (inactive) in each case.

Turning to `Cc1cc([C@@H](C)Nc2ccccc2C(=O)O)c2nc(N3CCOCC3)cc(=O)n2c1` [AZD-6482], the Kd in experiment [1], in experiment [2], in experiment [3], in experiment [4], in experiment [5] and in [6] was > 30 µM (inactive) in each case. In addition, the Kd in experiment [7], in experiment [8], in experiment [9] and in experiment [10] was > 30 µM (inactive) in each case.

As to `CNC(=O)c1ccc(-c2cnc3ncc(Cc4ccc5ncccc5c4)n3n2)cc1F` [CAPMATINIB], the Kd in experiment [1], in experiment [2], in experiment [3], in experiment [4], in [5] and in experiment [6] was > 30 µM (inactive) throughout. Besides, the Kd in experiment [7], in experiment [8], in [9] and in [10] was > 30 µM (inactive) in each case.

On to `CN1CC[C@@H](c2c(O)cc(O)c3c(=O)cc(-c4ccccc4Cl)oc23)[C@@H]1CO`, for which the Kd (commonly a measure of binding affinity in units of concentration) in experiment [1] is > 30 µM (inactive); in [2], > 30 µM (inactive); in experiment [3] it was 0.892 µM (active); in experiment [4], > 30 µM (inactive); in [5], > 30 µM (inactive); in experiment [6], > 30 µM (inactive). Further, the Kd is > 30 µM (inactive) in experiment [7], 4.23 µM (active) in experiment [8], > 30 µM (inactive) in experiment [9] and > 30 µM (inactive) in experiment [10].

As to `N[C@@H]1CCCN(c2c(/C=C3\SC(=O)NC3=O)cccc2-c2ccccc2)C1`, the Kd in [1], in [2], in experiment [3], in experiment [4], in experiment [5] and in [6] was > 30 µM (inactive) each time. For the same molecule, the Kd in experiment [7], in experiment [8], in experiment [9] and in experiment [10] was > 30 µM (inactive) in each case.

For the molecule `CCN1CCN(Cc2ccc(-c3cc4c(N[C@H](C)c5ccccc5)ncnc4[nH]3)cc2)CC1` [AEE-788], the Kd in experiment [1], in experiment [2], in [3], in experiment [4], in [5] and in [6] was > 30 µM (inactive) throughout. The Kd in experiment [7], in [8], in experiment [9] and in [10] was > 30 µM (inactive) in each case.

For `C[C@@H]1CN(Cc2ccc(F)cc2)[C@@H](C)CN1C(=O)c1cc2c(C(=O)C(=O)N(C)C)cn(C)c2cc1Cl` [TALMAPIMOD], the Kd in experiment [1], in experiment [2], in experiment [3], in [4], in experiment [5] and in [6] was > 30 µM (inactive) each time. For the same molecule, the Kd in [7], in experiment [8], in experiment [9] and in experiment [10] was > 30 µM (inactive) each time.

Take `O=C(Nc1ccc(-c2ccnc(Nc3ccc(N4CCOCC4)cc3)n2)cc1)C1CCCN1` (stereo not given) [XL-019]: the Kd in experiment [1], in [2], in experiment [3], in experiment [4], in experiment [5] and in experiment [6] was > 30 µM (inactive) in each case. In addition, the Kd in experiment [7], in experiment [8], in [9] and in experiment [10] was > 30 µM (inactive) each time.

On to `CCn1c(=O)c(-c2cc[nH]n2)cc2c(C)nc(N)nc21` [VOXTALISIB], for which the Kd in experiment [1], in experiment [2], in experiment [3], in [4], in experiment [5] and in experiment [6] was > 30 µM (inactive) each time. In addition, the Kd in [7], in experiment [8], in experiment [9] and in experiment [10] was > 30 µM (inactive) in each case.

With `Cc1cc2c(F)c(Oc3ncnn4cc(OC[C@@H](C)OC(=O)[C@H](C)N)c(C)c34)ccc2[nH]1` [BRIVANIB ALANINATE], the Kd in experiment [1], in [2], in experiment [3], in experiment [4], in experiment [5] and in [6] was > 30 µM (inactive) throughout. Further, the Kd in experiment [7], in experiment [8], in experiment [9] and in experiment [10] was > 30 µM (inactive) throughout.
